Data published in patent US20140336182A1, “Aurora Kinase Modulators and Method of Use” (Amgen Inc., priority 2013, published 2014).

system: HeLa cells; experiment: HeLa cell 24 hr ploidy assay (DNA content); assay type: cell-based; settings: Homo sapiens, HeLa, 4N ploidy, average, read-out: 24h_4NPloidy EC50_IP (uM Avg)
Procedure, shortened: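 HeLa cells (1×10^4/well, MEM+10% FBS) cultured 24 h, treated with serially diluted compounds (0.25% DMSO final), then fixed, permeabilized and stained with Hoechst 33342 (0.5 ug/ml). Imaging quantified % 4N and >4N cells; EC50 IP and EC50 transit derived from dose curves.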

| EC50 [µM] | SMILES |
| --- | --- |
| 0.028 | COc1cccc(-c2nnc(Nc3ccc(Oc4ccnc5cc(C#N)ccc45)cc3)c3ccccc23)n1 [compound 102] |
| 0.85 | COc1cnc2c(Oc3ccc(Nc4nnc(-c5ccc(OC(C)C)cc5)c5ccccc45)cc3)ccnc2c1 [compound 137] |
| 0.323 | COc1cnc2c(Oc3ccc(Nc4nnc(-c5cccc(COC(C)=O)n5)c5ccccc45)cc3)ccnc2c1 [compound 132] |
| 0.06 | COc1cc2nccc(Oc3ccc(Nc4nnc(-c5cccs5)c5ccccc45)cc3F)c2cc1OC [compound 76] |
| 0.132 | COc1cc2nccc(Oc3ccc(Nc4nnc(-c5cc(C)ccn5)c5ccccc45)cc3)c2cn1 [compound 121] |
| 0.066 | COc1cc2nccc(Oc3ccc(Nc4nnc(-c5cc(C)ccn5)c5ccccc45)cc3)c2cc1OC [compound 117] |
| 3.09 | COc1cc2nccc(Oc3ccc(Nc4nnc(-n5nc(C)cc5C)c5ccccc45)cc3F)c2cc1OC [compound 77] |
| 0.39 | COc1cnc2c(Oc3ccc(Nc4nnc(-c5ccccc5)cc4C)cc3)ccnc2c1 [compound 107] |
| 0.061 | CCCc1cc(-c2ccccc2)nnc1Nc1ccc(Oc2ccnc3cc(OC)cnc23)cc1 [compound 156] |
| > 1.2 | COc1cnc2c(Oc3ccc(Nc4nnc(-c5cccc(C)n5)c5ccccc45)cn3)ccnc2c1 [compound 128, N-(6-((7-(methyloxy)-1,5-naphthyridin-4-yl)oxy)-3-pyridinyl)-4-(6-methyl-2-pyridinyl)-1-phthalazinamine] |

same assay, conditions: Homo sapiens, HeLa, HeLa cells, 4N ploidy, average, read-out: 24h_4NPloidy EC50_IP (uM Avg)

| EC50 [µM] | SMILES |
| --- | --- |
| 0.008 | COc1cnc2c(Oc3ccc(Nc4nnc(-c5cc6ccccc6o5)c5ccccc45)cc3)ccnc2c1 [compound 176] |
| 0.048 | Cc1csc(-c2nnc(Nc3ccc(Sc4ccnc5cc(C#N)sc45)cc3)c3ccccc23)c1 [compound 459] |
| 0.187 | COc1cnc2c(Sc3ccc(Nc4nnc(C5=CCNCC5)c5ccccc45)cc3)ccnc2c1 [Example 401, N-(4-(7-Methoxy-1,5-naphthyridin-4-ylthio)phenyl)-4-(1,2,3,6-tetrahydropyridin-4-yl)phthalazin-1-amine] |
| 0.026 | COc1cnc2c(Oc3ccc(Nc4nnc(-c5ccc(Cl)cc5)c5ccccc45)cn3)ccnc2c1 [compound 222, 4-(4-chlorophenyl)-N-(6-((7-(methyloxy)-1,5-naphthyridin-4-yl)oxy)-3-pyridinyl)-1-phthalazinamine] |
| 0.049 | CCc1cc(-c2ccc(Cl)cc2)nnc1Nc1ccc(Oc2ccnc3cc(OC)cnc23)cc1 [compound 256] |
| 0.016 | COc1cnc2c(Sc3ccc(Nc4nnc(N5CCN(C(C)=O)CC5)c5ccccc45)cc3)ccnc2c1 [compound 608] |
| 0.008 | COc1cnc2c(Sc3ccc(Nc4nnc(-c5ccn(C)c(=O)c5)c5ccccc45)cc3)ccnc2c1 [Example 396, 4-(4-(4-(7-Methoxy-1,5-naphthyridin-4-ylthio)phenylamino)phthalazin-1-yl)-1-methylpyridin-2(1 H)-one] |
| 0.015 | CCc1ccc(-c2nnc(Nc3ccc(Oc4ccnc5cc(OC)cnc45)cc3)c3ccccc23)cc1 [compound 221] |
| 0.016 | Clc1ccc(-c2nnc(Nc3ccc(Sc4ccnc5cccnc45)cc3)c3ccccc23)nc1 [compound 493] |
| 0.009 | COc1cc(OC)c2c(Oc3ccc(Nc4nnc(-c5ccc(Cl)cc5)c5ccccc45)cc3)ccnc2c1 [compound 435] |
| 0.01 | COCCOc1ccc2c(Sc3ccc(Nc4nnc(-c5ccc(Cl)cc5)c5ccccc45)cc3)ccnc2c1 [compound 431] |
| 0.033 | COc1cnc2c(Oc3ccc(Nc4nnc(-c5ccc(N(C)C)cc5)c5ccccc45)cc3)ccnc2c1 [compound 194] |
| 0.011 | Cn1cncc1-c1cc2nccc(Oc3ccc(Nc4nnc(-c5ccccc5)c5ccccc45)cc3)c2s1 [compound 202, N-(4-((2-(1-methyl-1H-imidazol-5-yl)thieno[3,2-b]pyridin-7-yl)oxy)phenyl)-4-phenyl-1-phthalazinamine] |
| > 1.2 | COc1cnc2c(Oc3ccc(Nc4nnc(-c5ccnn5C)c5ccccc45)cc3)ccnc2c1 [compound 223] |
| 0.006 | COc1cnc2c(Sc3ccc(Nc4nnc(N5CCN6CCC[C@@H]6C5)c5ccccc45)cc3)ccnc2c1 [compound 582] |
| 0.021 | COc1cnc2c(Oc3ccc(Nc4nnc(-c5cccc(N6CCCCC6)c5)c5ccccc45)cc3)ccnc2c1 [compound 197] |
| 0.197 | COc1cnc2c(Oc3ccc(Nc4nnc(-c5ccc6sc(C)nc6c5)c5ccccc45)cc3)ccnc2c1 [compound 195, 4-(2-methyl-1,3-benzothiazol-5-yl)-N-(4-((7-(methyloxy)-1,5-naphthyridin-4-yl)oxy)phenyl)-1-phthalazinamine] |
| 0.009 | COc1cnc2c(Sc3ccc(Nc4nnc(-c5cc(C)cs5)c5ccccc45)cc3F)ccnc2c1 [compound 528] |
| 0.034 | Cc1csc(-c2nnc(Nc3ccc(Oc4ncnc5ccccc45)cc3)c3ccccc23)c1 [compound 568] |
| 0.006 | CC(C)n1ccc2nccc(Sc3ccc(Nc4nnc(-c5ccc(Cl)cc5)c5ccccc45)cc3)c21 [compound 471] |
| 0.086 | c1ccc(-c2nnc(Nc3ccc(Sc4ccnc5ccoc45)cc3)c3ccccc23)cc1 [compound 466] |
| 0.001 | Clc1ccc(-c2nnc(Nc3ccc(Sc4ccnc5ccsc45)cc3)c3ccccc23)cc1 [compound 332] |
| 0.202 | CCc1cc(-c2ccc3c(c2)OCO3)nnc1Nc1ccc(Oc2ccnc3cc(OC)cnc23)cc1 [compound 594] |
| 0.013 | Oc1ccc2nccc(Sc3ccc(Nc4nnc(-c5ccc(Cl)cc5)c5ccccc45)cc3)c2c1 [Example 388, 4-(4-(4-(4-Chlorophenyl)phthalazin-1-ylamino)phenylthio)quinolin-6-ol] |
| 0.052 | Cc1csc(-c2nnc(Nc3ccc(Sc4ccnc5cc(OC(F)(F)F)ccc45)cc3)c3ccccc23)c1 [compound 499] |

| EC50 [µM] | SMILES |
| --- | --- |
| 0.015 | Oc1cnc2c(Sc3ccc(Nc4nnc(-c5ccccc5)c5ccccc45)cc3)ccnc2c1 [compound 415] |
| 0.052 | COc1cnc2c(Oc3ccc(Nc4nnc(-c5cccc6[nH]ccc56)c5ccccc45)cc3)ccnc2c1 [compound 183] |
| 0.066 | COc1cnc2c(Oc3ccc(Nc4nnc(-c5ccc(C)nc5)c5ccccc45)cc3)ccnc2c1 [compound 268] |
| 0.055 | c1ccc(-c2nnc(Nc3ccc(Sc4ccnc5[nH]ncc45)cc3)c3ccccc23)cc1 [compound 352] |
| 0.01 | COc1ccc2nccc(Oc3ccc(Nc4nnc(-c5cc(C)cs5)c5ccccc45)cc3)c2n1 [compound 552] |
| > 1.2 | Clc1ccc(-c2nnc(Nc3ccc(Oc4ncnc5[nH]cnc45)cc3)c3ccccc23)cc1 [compound 266] |
| 0.02 | COc1cnc2c(Sc3ccc(Nc4nnc(SC)c5ccccc45)cc3)ccnc2c1 [compound 514] |
| 0.025 | c1ccc(-c2nnc(Nc3ccc(Oc4ccnc5cc(-c6ccoc6)ccc45)cc3)c3ccccc23)cc1 [compound 343] |
| 0.002 | COc1cnc2c(Sc3ccc(Nc4nnc(NCCc5ccccn5)c5ccccc45)cc3)ccnc2c1 [compound 537] |
| 0.002 | c1ccc2c(-c3ccc4c(c3)OCO4)nnc(Nc3ccc(Sc4ccnc5ccncc45)cc3)c2c1 [compound 427] |
| 0.381 | COC1CCN(c2nnc(Nc3ccc(Oc4ccnc5ccoc45)cc3)c3ccccc23)CC1 [compound 478] |
| 0.016 | Clc1ccc(-c2nnc(Nc3ccc(Sc4ccnc5[nH]ccc45)cc3)c3ccccc23)cc1 [compound 330] |
| > 1.2 | c1ccc(-c2nnc(Nc3ccc(Oc4ncnc5[nH]ccc45)cc3)c3ccccc23)cc1 [compound 273] |
| 0.043 | COc1ccc2ncnc(Oc3ccc(Nc4nnc(-c5ccc(Cl)cc5)c5ccccc45)cc3)c2c1 [compound 564] |
| 0.828 | Cc1noc(-c2cc3nccc(Oc4ccc(Nc5nnc(-c6ccccc6)c6ccccc56)cc4)c3s2)n1 [compound 288] |
| 0.129 | COc1cnc2c(Oc3ccc(Nc4nnc(-c5ccc(F)nc5)c5ccccc45)cc3)ccnc2c1 [compound 190, 4-(6-fluoro-3-pyridinyl)-N-(4-((7-(methyloxy)-1,5-naphthyridin-4-yl)oxy)phenyl)-1-phthalazinamine] |
| 0.076 | COc1ccc2c(Oc3ccc(Nc4nnc(-c5ccccc5)c5ccccc45)cc3)c(F)cnc2c1 [compound 164] |
| 0.001 | COc1cnc2c(Sc3ccc(Nc4nnc(-c5ccc6c(c5)OCO6)c5ccccc45)cc3F)ccnc2c1 [compound 522] |
| 0.018 | COc1cnc2c(Sc3ccc(Nc4nnc(N5CCN(S(C)(=O)=O)CC5)c5ccccc45)cc3)ccnc2c1 [compound 605] |
| 0.035 | COc1cnc2c(Oc3ccc(Nc4nnc(-c5ccc(Cl)cn5)c5ccccc45)cc3)ccnc2c1 [compound 228, 4-(5-chloro-2-pyridinyl)-N-(4-((7-(methyloxy)-1,5-naphthyridin-4-yl)oxy)phenyl)-1-phthalazinamine] |
| 0.001 | Cc1csc(-c2nnc(Nc3ccc(Sc4ccnc5cccnc45)cc3)c3ccccc23)c1 [compound 336] |
| 0.005 | COc1cnc2c(Oc3ccc(Nc4nnc(-c5ccc(C)c(C)c5)c5ccccc45)cc3)ccnc2c1 [compound 192] |
| 0.12 | FC(F)Oc1cnc2c(Sc3ccc(Nc4nnc(-c5ccccc5)c5ccccc45)cc3)ccnc2c1 [Example 387, N-(4-(7-(difluoromethoxy)-1,5-naphthyridin-4-ylthio)phenyl)-4-phenylphthalazin-1-amine] |
| 0.059 | COc1cnc2c(Sc3ccc(Nc4nnc(OCC(F)(F)F)c5ccccc45)cc3)ccnc2c1 [compound 513] |

same assay, conditions: Homo sapiens, HeLa, HeLa cells, average, read-out: 24h_4NPloidy EC50_IP (uM Avg)

| EC50 [µM] | SMILES |
| --- | --- |
| 0.26 | COc1cnc2c([S+]([O-])c3ccc(Nc4nnc(-c5ccc(F)cc5)c5ccccc45)cc3)ccnc2c1 (stereo not drawn) [Example 410, 4-(4-fluorophenyl)-N-(4-(7-methoxy-1,5-naphthyridin-4-ylsulfinyl)phenyl)phthalazin-1-amine] |
